Where “and” joins values, the source holds several entries; their conditions need not be identical. Identical values can stand only once. Calls of active or inactive are those of the source. Unless noted, the calls are words filed in the database; no cut-off is given here.
Experiments:
HEK293 = test: EBV LMP1 TES2 canonical NF-kB signalling blockers – cell-based, HEK293, luciferase, cherry-pick, dose response (AID 588343); type: functional; conditions: Homo sapiens
[1] = target: Latent membrane protein 1 (Human herpesvirus 4 (strain B95-8), UniProt P03230); test: LMP1 TES1 pathway selectivity over dsRED control – imaging, HEK293T, dual-color eGFP/dsRED, cherry-picks, selectivity assay for LMP1 NF-kB inhibitor project, dose response (AID 588398); type: functional, cell-based
Latent membrane protein 1, sequence (P03230 whole entry, the tested form may be a part): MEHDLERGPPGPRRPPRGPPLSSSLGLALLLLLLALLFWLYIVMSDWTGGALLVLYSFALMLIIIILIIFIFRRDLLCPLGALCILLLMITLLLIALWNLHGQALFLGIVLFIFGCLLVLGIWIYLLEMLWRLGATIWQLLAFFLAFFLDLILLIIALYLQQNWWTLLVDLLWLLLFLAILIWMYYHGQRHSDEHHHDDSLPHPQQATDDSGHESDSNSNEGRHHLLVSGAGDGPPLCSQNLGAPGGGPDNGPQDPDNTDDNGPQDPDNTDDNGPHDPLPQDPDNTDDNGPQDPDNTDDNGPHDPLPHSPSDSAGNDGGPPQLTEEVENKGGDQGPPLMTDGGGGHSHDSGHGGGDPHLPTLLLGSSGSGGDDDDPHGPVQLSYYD

[2] = target: T1, Oxysterols receptor LXR-beta (Homo sapiens, UniProt P55055); type: functional, cell-based;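 further: agonist activity at LXR measured by a cell-based luminescence readout across a dose range, run as a counterscreen for daf-12 agonists; HEK293 cells with Gal4-LXR fusion and GAL4-driven luciferase reporter; potency for activation of Gal4-LXR reporter so compounds are agonists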
T1 sequence (P55055 whole entry): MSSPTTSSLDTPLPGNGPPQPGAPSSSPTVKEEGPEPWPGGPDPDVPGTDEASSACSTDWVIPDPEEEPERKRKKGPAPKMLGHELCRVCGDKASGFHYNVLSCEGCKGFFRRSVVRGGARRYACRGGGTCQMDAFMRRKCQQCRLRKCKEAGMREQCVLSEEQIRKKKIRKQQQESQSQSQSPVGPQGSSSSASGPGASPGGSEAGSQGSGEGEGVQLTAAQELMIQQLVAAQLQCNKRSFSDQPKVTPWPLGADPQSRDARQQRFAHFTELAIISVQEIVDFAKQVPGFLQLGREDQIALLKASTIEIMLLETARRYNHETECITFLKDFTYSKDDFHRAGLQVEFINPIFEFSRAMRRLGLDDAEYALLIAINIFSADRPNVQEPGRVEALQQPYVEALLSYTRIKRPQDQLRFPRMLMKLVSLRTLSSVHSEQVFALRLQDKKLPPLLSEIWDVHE

Beta Lactamase [3] = target: T2, Beta Lactamase (Pseudomonas aeruginosa, UniProt Q932Y6);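 further: confirmatory high-throughput screen measuring VIM-2 metallo-beta-lactamase inhibition by epi-absorbance in dose response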
T2 sequence (Q932Y6 whole entry): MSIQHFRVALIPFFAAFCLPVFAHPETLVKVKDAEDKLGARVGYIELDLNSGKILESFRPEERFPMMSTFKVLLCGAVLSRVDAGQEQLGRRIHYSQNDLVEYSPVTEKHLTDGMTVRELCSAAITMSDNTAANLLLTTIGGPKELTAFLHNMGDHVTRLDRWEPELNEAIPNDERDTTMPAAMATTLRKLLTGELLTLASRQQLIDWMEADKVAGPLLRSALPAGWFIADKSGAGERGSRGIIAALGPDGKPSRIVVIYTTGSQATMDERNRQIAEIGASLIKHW

Beta-lactamase [4] = target: Beta-lactamase (Pseudomonas aeruginosa, UniProt Q79MP6);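 further: biochemical dose-response test of metallo-beta-lactamase enzyme inhibition, read out by epi-absorbance; purified recombinant IMP-1 metallo-beta-lactamase with nitrocefin as substrate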
Beta-lactamase (Pseudomonas aeruginosa, UniProt Q79MP6), sequence (Q79MP6 whole entry): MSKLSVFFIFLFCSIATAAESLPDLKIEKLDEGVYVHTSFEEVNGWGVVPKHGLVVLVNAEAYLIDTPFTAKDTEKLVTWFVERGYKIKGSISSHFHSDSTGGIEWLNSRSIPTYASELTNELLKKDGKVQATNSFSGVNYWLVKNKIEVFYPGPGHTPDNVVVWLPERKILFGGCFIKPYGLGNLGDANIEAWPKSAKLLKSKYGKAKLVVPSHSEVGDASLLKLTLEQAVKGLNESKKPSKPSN

Beta-lactamase [5] = target: Beta-lactamase (Salmonella choleraesuis (strain SC-B67), UniProt Q5J463)
Beta-lactamase (Salmonella choleraesuis (strain SC-B67), UniProt Q5J463), sequence (Q5J463 whole entry, the tested form may be a part): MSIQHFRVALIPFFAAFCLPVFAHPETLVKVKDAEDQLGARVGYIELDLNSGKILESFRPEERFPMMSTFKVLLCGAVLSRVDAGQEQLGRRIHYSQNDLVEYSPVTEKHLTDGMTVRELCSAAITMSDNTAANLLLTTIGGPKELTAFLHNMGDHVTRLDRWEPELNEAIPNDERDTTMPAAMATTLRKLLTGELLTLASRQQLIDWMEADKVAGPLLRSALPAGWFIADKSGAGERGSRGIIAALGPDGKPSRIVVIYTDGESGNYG

CHO = CHO cell viability loss, potency – luminescence, cytotoxicity control for TLR9-MyD88 binding inhibitor project, dose response (AID 588339); type: functional, cell-based, hamster; conditions: Cricetulus griseus;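 further: CHO cells stably coexpressing TLR9 and MyD88 fusions from primary screen; compound exposure lasted 48 hours before viability readout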
Beta Lactamase [6] = target: T2, Beta Lactamase; test: BLA reporter interference, concentration series – BLA reporter cells, FRET fluorescence, artefact control for TLR9-MyD88 binding inhibitor project, dose response (AID 588341); type: cell-based;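 further: cell based assay in CHO-K1 cells stably expressing beta-lactamase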
[7] = activation of human KCNQ1/KCNE1 current – automated patch clamp, CHO cells, selectivity assay for KCNQ2 activator project, dose response (AID 493042); type: functional
[8] = target: Potassium voltage-gated channel subfamily KQT member 2 (Rattus norvegicus, UniProt O88943); test: Mode of action assay-Dose response assay for compounds that activate KCNQ2 potassium channels on automated patch clamp. [Related pubchem assays (depositor defined):AID2239, AID2258, AID2287, AID493113]; type: functional
Potassium voltage-gated channel subfamily KQT member 2, sequence (O88943 whole entry): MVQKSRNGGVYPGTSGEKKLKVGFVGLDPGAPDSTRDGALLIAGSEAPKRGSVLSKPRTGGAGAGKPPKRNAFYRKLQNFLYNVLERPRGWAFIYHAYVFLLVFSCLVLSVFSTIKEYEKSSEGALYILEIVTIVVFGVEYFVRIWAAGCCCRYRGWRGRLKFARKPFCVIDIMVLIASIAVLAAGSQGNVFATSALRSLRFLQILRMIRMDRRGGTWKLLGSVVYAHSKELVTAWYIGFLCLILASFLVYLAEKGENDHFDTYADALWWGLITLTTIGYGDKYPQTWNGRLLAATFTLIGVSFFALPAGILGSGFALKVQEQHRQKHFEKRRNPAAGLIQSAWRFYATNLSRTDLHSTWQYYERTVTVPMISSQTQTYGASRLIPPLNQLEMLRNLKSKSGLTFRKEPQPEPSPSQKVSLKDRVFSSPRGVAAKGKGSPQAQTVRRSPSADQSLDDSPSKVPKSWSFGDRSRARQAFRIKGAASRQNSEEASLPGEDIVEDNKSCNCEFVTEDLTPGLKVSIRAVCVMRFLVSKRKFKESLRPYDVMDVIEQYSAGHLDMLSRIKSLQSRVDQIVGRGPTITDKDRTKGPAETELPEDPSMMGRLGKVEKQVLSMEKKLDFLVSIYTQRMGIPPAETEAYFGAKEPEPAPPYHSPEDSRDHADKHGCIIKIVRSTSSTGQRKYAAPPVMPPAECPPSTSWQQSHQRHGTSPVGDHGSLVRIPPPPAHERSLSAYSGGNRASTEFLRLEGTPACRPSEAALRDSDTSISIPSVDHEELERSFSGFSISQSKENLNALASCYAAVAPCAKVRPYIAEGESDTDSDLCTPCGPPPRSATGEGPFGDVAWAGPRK

[9] = target: Potassium voltage-gated channel subfamily KQT member 2/member 3 (Rattus norvegicus, UniProt O88943+O88944); test: Mode of action assay-Dose response assay for KCNQ2 activators in the KCNQ2/KCNQ3 co-expressing cells on automated patch clamp. [Related pubchem assays (depositor defined):AID2239, AID2258, AID2287]; type: functional
Potassium voltage-gated channel subfamily KQT member 2/member 3, sequence (O88943 whole entry): as above
Potassium voltage-gated channel subfamily KQT member 2/member 3, sequence (O88944 whole entry): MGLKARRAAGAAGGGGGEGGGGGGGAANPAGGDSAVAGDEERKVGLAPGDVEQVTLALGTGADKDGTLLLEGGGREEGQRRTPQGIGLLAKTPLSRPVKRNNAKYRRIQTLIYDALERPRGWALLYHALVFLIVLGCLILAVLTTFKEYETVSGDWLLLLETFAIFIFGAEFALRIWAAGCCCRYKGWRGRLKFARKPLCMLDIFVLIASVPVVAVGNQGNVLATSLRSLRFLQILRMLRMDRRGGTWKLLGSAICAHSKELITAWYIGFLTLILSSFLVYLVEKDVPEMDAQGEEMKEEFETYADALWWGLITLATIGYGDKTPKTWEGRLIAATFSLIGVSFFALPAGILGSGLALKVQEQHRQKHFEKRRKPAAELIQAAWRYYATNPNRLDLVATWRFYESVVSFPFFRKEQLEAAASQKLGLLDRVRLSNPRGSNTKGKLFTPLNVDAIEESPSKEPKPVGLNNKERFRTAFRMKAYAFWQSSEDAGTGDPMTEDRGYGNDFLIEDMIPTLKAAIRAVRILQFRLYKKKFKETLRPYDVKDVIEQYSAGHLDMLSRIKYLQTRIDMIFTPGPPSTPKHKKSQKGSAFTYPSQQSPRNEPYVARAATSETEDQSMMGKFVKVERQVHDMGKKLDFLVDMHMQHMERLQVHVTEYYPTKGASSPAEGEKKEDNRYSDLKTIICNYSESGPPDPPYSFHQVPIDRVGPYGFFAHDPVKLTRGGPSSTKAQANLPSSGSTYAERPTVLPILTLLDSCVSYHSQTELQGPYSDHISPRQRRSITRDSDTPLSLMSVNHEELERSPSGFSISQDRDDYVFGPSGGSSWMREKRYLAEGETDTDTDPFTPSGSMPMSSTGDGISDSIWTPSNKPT

[10] = target: T3, Sentrin-specific protease 8 (Homo sapiens, UniProt Q96LD8); test: inhibition of human SENP8 cleavage activity – biochemical, luminescence, SAR follow-up (AID 504501); type: functional
T3 sequence (Q96LD8 whole entry): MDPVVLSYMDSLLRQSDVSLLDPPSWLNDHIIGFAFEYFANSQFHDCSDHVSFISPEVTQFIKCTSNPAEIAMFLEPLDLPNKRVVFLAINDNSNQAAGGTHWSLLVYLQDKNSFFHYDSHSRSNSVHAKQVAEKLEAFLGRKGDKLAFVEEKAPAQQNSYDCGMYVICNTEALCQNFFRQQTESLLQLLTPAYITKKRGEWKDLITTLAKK

Caspase-3 = target: T4, Caspase-3 (Homo sapiens, UniProt P42574); test: SAR Analysis of small molecule inhibitors of Sentrin-specific proteases (SENPs) using a Caspase-3 Selectivity assay. [Related pubchem assays (depositor defined):AID2540, AID2599, AID434973, AID489001]; type: functional
T4 sequence (P42574 whole entry): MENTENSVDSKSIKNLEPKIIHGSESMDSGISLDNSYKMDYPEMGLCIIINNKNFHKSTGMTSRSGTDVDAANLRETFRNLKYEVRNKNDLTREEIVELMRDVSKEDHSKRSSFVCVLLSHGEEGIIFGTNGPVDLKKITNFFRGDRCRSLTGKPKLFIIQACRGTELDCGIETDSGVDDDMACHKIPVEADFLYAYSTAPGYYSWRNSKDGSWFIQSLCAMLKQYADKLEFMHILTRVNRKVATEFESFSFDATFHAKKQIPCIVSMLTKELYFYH

[11] = target: T5, Sentrin-specific protease 6 (Homo sapiens, UniProt Q9GZR1); test: SAR Analysis of small molecule inhibitors of Sentrin-specific protease 6 (SENP6) using a Luminescent assay. [Related pubchem assays (depositor defined):AID2582, AID2599]; type: functional
T5 sequence (Q9GZR1 whole entry): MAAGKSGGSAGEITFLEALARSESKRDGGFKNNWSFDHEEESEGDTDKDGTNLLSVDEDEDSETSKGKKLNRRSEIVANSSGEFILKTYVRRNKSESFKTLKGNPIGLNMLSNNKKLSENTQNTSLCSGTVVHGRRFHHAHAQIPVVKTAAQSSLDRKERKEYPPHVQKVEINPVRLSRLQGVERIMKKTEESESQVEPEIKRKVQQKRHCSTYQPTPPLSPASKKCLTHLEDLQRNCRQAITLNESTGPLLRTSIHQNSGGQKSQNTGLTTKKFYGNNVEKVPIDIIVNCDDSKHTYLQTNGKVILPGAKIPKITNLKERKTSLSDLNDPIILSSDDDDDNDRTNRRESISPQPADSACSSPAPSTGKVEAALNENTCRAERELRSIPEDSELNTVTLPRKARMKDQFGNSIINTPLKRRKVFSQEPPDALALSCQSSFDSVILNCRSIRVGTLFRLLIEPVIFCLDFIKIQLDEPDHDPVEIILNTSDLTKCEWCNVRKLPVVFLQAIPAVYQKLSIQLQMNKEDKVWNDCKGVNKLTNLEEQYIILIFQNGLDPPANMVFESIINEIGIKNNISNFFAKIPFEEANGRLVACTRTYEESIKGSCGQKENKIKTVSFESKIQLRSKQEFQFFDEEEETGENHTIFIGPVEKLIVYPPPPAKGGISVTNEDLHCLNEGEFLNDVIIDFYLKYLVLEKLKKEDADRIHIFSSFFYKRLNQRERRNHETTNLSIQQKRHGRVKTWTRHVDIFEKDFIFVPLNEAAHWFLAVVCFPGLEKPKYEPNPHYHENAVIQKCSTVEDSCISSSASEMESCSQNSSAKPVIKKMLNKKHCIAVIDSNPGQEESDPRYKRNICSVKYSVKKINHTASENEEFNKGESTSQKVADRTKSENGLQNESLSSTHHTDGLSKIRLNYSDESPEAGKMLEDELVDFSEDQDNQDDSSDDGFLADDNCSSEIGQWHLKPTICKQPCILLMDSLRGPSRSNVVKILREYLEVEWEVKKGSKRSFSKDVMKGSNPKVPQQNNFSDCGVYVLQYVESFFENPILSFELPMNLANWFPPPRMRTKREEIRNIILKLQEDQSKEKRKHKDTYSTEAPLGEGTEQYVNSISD

[12] = target: T6, Sentrin-specific protease 7 (Homo sapiens, UniProt Q9BQF6); test: inhibition of human SENP7 cleavage activity – biochemical, luminescence, SAR follow-up (AID 504497); type: functional
T6 sequence (Q9BQF6 whole entry): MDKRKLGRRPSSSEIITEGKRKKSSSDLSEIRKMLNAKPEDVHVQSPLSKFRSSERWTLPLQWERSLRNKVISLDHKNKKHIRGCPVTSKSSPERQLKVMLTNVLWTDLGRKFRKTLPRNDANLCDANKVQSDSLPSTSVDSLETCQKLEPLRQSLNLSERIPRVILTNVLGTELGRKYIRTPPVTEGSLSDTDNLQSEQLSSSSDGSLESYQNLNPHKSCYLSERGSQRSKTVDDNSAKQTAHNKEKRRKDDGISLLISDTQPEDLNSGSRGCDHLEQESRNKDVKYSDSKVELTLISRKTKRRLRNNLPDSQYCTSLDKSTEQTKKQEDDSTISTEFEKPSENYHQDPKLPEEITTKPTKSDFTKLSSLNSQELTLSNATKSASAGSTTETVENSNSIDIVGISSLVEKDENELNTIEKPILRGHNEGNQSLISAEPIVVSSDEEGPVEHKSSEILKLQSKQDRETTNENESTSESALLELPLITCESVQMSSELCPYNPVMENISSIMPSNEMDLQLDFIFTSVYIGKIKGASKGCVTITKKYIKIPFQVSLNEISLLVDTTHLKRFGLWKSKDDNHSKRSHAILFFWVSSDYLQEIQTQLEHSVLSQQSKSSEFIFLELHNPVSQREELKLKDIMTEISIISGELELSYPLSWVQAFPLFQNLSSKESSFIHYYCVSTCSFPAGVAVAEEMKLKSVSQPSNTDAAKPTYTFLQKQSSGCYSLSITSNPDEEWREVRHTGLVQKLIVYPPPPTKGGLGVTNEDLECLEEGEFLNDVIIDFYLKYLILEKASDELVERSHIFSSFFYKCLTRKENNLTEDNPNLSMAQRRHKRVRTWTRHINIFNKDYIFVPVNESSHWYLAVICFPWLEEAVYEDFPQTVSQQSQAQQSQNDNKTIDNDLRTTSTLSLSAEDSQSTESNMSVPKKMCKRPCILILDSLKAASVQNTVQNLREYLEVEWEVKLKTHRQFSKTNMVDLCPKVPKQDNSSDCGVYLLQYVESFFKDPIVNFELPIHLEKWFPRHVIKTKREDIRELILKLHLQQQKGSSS

## CCc1sc(C(=O)Nc2ncccc2O)cc1C
HEK293
  AC50: 3.71 µM (active)
[1]
  AC50: 29.7 µM (active)
[2]
  EC50: > 67.5 µM (inactive)

## O=C(O)c1ccccc1-c1ccc(/C=C/c2cc(C(F)(F)F)nc(O)n2)o1
Beta Lactamase [3]
  IC50: 25 µM (inactive)
Beta-lactamase [4]
  IC50: 30.2 µM (inactive)
Beta-lactamase [5]
  IC50: 6.74 µM (active)
CHO
  IC50: > 49.8 µM (inactive)
Beta Lactamase [6]
  IC50: 7 µM (active)

## Cc1cc(C)c(NC(=O)C2CC3CCC2C3)c(C)c1 (stereo not given)
[7]
  EC50: 31.9 µM (active)
[8]
  EC50: 410 nM (active) and 369 nM (active) and 230 nM (active)
[9]
  EC50: 366 nM (active)

## O=C(Nc1nc2ccc(Cl)cc2s1)c1ccsc1
[10]
  IC50: 830 nM (active)
Caspase-3
  IC50: 2.3 µM (active)
[11]
  IC50: 830 nM (active)
[12]
  IC50: 1.1 µM (active)

From ChEMBL document CHEMBL1201862, “PubChem BioAssay data set” (2004)
